PMC3516535, “Rhesus Macaque Theta Defensins Suppress Inflammatory Cytokines and Enhance Survival in Mouse Models of Bacteremic Sepsis” (PLoS ONE, 2012)
Bridge positions count the residues as written; N and C are the ends. Ends that are not written are not given here. Peptide text beside a SMILES is read from it.

Assays:
[1] = tested on: human EDTA-anti-coagulated blood diluted 1∶10; experiment: TNF release assay in stimulated diluted whole blood (ELISA); assay type: cell-based; conditions: 4 h; for anti-TNF effectiveness relative to RTD-1 / hierarchy of anti-TNF potencies: E. coli-stimulated blood, N = 2
[2] = tested on: THP-1 monocytic cells; experiment: TNF release assay in LPS-stimulated THP-1 monocytes (ELISA); assay type: cell-based, human; conditions: 4 h, N = 2; for hierarchy of anti-TNF potencies: THP-1 in RPMI +5% human EDTA-plasma, 1 ng/ml K12 LPS
Protocol: THP-1 monocytic cells (ATCC, Manassas, VA) were grown and maintained in RPMI-1640 medium containing 10% fetal bovine serum and penicillin/streptomycin. Cells were harvested by centrifugation, washed with RPMI-1640 medium and suspended at 5×10^5 cells/ml in fresh medium containing 5% human EDTA plasma.
Peptides (RTDs 1–5, human neutrophil α-defensins) were aliquoted into wells of pyrogen-free 12- or 24-well plates wherein final peptide concentrations were 0–10 µg/ml. Wells were inoculated with 1×10^5 CFU/ml S. aureus or 100 CFU/ml E. coli, or 1–3 ng/ml of E. coli K12 LPS. Samples (5–10 µl) containing peptide or bacteria/LPS were placed on opposite sides of the plate well. Mixing commenced with the addition of 0.5 to 2.0 ml of 1∶10 diluted blood, PBLs (5×10^5/ml), or THP-1 cells (2–5×10^5 cells/ml). Plates were incubated at 37°C in 5% CO2 for 4 h with gentle mixing. […] Incubation mixtures were centrifuged at 200× g for 10 min at 22°C and supernatants were clarified by centrifugation at 23,000× g for 15 min at 4°C. Supernatant TNF was quantified by sandwich ELISA (OptEIA II; BD Biosciences; Hu TNF-α, Invitrogen) per suppliers’ directions, using a SpectraMax Plate Reader.

[3] = tested on: lethal bacteremia; conditions: single systemic administration at time of bacterial challenge; cited from earlier work
Excerpt: The macrocyclic structure of θ-defensins confers remarkable stability. […] RTD-1 was also well-tolerated when administered intravenously or subcutaneously to mice, rats, and chimpanzees. Following repeated injections, neither of two chimpanzees produced anti-RTD-1 antibody. […] The discovery of antimicrobial peptides and their proven roles in host defense has prompted studies to evaluate dive ...

[4] = tested on: CLP sepsis; parameters: method as in PMID 12545019; conditions: multiple doses; cited from earlier work

Molecule | anti-TNF effectiveness relative to RTD-1 [1] | hierarchy of anti-TNF potencies [1] | hierarchy of anti-TNF potencies [2] | other results
CC(C)C[C@@H]1NC(=O)[C@@H]2CSSC[C@H](NC(=O)[C@H](CCCNC(=N)N)NC(=O)[C@@H]3CSSC[C@H](NC1=O)C(=O)N[C@@H](CCCNC(=N)N)C(=O)N[C@@H](CCCNC(=N)N)C(=O)NCC(=O)N[C@@H](C(C)C)C(=O)N3)C(=O)N[C@@H](CC(C)C)C(=O)N[C@H]1CSSC[C@H](NC(=O)[C@H](C(C)C)NC(=O)CNC(=O)[C@H](CCCNC(=N)N)NC(=O)[C@H](CCCNC(=N)N)NC1=O)C(=O)N[C@@H](CCCNC(=N)N)C(=O)N2 [RTD-2] (cyclo(CLCRRGVCRCLCRRGVCR); disulfide 1-10, 3-8, 12-17) | substantially more effective than RTD-1 | RTD-5>2>1>4>3 | RTD-5>2>1>4>3 | –
CC[C@H](C)[C@@H]1NC(=O)[C@@H]2CSSC[C@H](NC(=O)[C@H](CCCNC(=N)N)NC(=O)[C@@H]3CSSC[C@H](NC1=O)C(=O)N[C@@H]([C@@H](C)O)C(=O)N[C@@H](CCCNC(=N)N)C(=O)NCC(=O)N[C@@H](Cc1ccccc1)C(=O)N3)C(=O)N[C@@H]([C@@H](C)CC)C(=O)N[C@H]1CSSC[C@H](NC(=O)[C@H](Cc3ccccc3)NC(=O)CNC(=O)[C@H](CCCNC(=N)N)NC(=O)[C@H]([C@@H](C)O)NC1=O)C(=O)N[C@@H](CCCNC(=N)N)C(=O)N2 [RTD-3] (cyclo(CICTRGFCRCICTRGFCR); disulfide 1-10, 3-8, 12-17) | less active | RTD-5>2>1>4>3 | RTD-5>2>1>4>3 | –
CC[C@H](C)[C@@H]1NC(=O)CNC(=O)[C@H](CC(C)C)NC(=O)[C@H](C(C)C)NC(=O)[C@@H]2CSSC[C@H](NC1=O)C(=O)N[C@@H](CCCNC(=N)N)C(=O)N[C@H]1CSSC[C@H](NC(=O)[C@H](CCCNC(=N)N)NC(=O)[C@@H]3CSSC[C@H](NC(=O)[C@H]([C@@H](C)CC)NC1=O)C(=O)N[C@@H]([C@@H](C)O)C(=O)N[C@@H](CCCNC(=N)N)C(=O)NCC(=O)N[C@@H](Cc1ccccc1)C(=O)N3)C(=O)N[C@@H]([C@@H](C)CC)C(=O)N2 [RTD-4] (cyclo(CICTRGFCRCICVLGICR); disulfide 1-10, 3-8, 12-17) | less active | RTD-5>2>1>4>3 | RTD-5>2>1>4>3 | –
CC[C@H](C)[C@@H]1NC(=O)CNC(=O)[C@H](CC(C)C)NC(=O)[C@H](C(C)C)NC(=O)[C@@H]2CSSC[C@H](NC1=O)C(=O)N[C@@H](CCCNC(=N)N)C(=O)N[C@H]1CSSC[C@H](NC(=O)[C@H](CCCNC(=N)N)NC(=O)[C@@H]3CSSC[C@H](NC(=O)[C@H]([C@@H](C)CC)NC1=O)C(=O)N[C@@H](CCCNC(=N)N)C(=O)N[C@@H](CCCNC(=N)N)C(=O)NCC(=O)N[C@@H](C(C)C)C(=O)N3)C(=O)N[C@@H]([C@@H](C)CC)C(=O)N2 [RTD-5] (cyclo(CICRRGVCRCICVLGICR); disulfide 1-10, 3-8, 12-17) | substantially more effective than RTD-1 | RTD-5>2>1>4>3 | RTD-5>2>1>4>3 | –
HNP-2: human neutrophil α-defensin purified from human neutrophils (CYCRIPACIAGERRYGTCIYQGRLWAFCC; ends and bridges not checked; cysteine pairing not given here; UniProt P59665 66-94, looked up) [reference compound] | – | – | – | effect on stimulated TNF release ([1]; E. coli-stimulated, 0–10 µg/ml peptide): no inhibitory effect; effect on stimulated TNF release ([2]; THP-1, 1 ng/ml K12 LPS): no inhibitory effect
LL-37: antimicrobial peptide derived from human cells (LLGDFFRKSKEKIGKEFKRIVQRIKDFLRNLVPRTES; Antibacterial peptide LL-37; UniProt P49913 134-170, looked up) | – | – | – | protection against lethal bacteremia [3]: Protection
PG-1: porcine protegrin (RGGRLCYCRRRFCVCVGR; ends and bridges not checked; cysteine pairing not given here; UniProt P32194 131-148, looked up) | – | – | – | endotoxin-neutralizing effect [4]: little endotoxin-neutralizing effect; therapeutic effect compared to vehicle control [4]: no therapeutic effect
indolicidin: antimicrobial peptide from ungulates (ILPWKWPWWPWRR; ends and bridges not checked; UniProt P33046 131-143, looked up) | – | – | – | protection against lethal bacteremia [3]: Protection
